In US20260232652A1, “COMBINATIONS OF DGK (DIACYLGLYCEROL KINASE) INHIBITORS” (priority 2023, published 2026):
“And” between values parts separate entries of the source, which are not always exact repeats. Identical values can stand only once.

How the values were obtained:
[1] = molecular target: T1, human DGKalpha (Homo sapiens, UniProt P23743); test: Human DGKalpha kinase activity inhibition assay (ADP-Glo); assay type: biochemical; details: read-out: IC50 hDGKa
T1 construct: made in house; host or cells: baculovirus-infected Sf9 insect cells
T1 sequence (P23743 whole entry): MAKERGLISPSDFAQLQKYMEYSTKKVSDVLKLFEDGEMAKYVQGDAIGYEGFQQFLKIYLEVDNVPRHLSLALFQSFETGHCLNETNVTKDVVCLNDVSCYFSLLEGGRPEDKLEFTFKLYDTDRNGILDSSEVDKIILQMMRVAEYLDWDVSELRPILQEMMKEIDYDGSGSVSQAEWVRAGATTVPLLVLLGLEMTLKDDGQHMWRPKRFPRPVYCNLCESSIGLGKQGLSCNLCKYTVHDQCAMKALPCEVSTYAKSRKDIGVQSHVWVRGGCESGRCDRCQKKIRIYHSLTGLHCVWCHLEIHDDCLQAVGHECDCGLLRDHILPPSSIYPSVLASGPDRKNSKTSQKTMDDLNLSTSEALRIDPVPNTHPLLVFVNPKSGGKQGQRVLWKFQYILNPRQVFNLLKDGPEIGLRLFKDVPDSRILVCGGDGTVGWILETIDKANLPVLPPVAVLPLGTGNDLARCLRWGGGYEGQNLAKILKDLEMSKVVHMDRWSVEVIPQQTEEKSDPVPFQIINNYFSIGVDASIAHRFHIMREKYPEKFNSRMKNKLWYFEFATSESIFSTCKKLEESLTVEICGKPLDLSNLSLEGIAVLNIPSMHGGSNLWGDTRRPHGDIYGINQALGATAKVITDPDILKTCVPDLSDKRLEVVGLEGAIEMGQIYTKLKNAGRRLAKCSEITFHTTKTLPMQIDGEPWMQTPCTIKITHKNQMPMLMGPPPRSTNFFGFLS
Procedure: Human DGKalpha inhibitory activity of compounds of the present invention was quantified employing the human DGKalpha kinase activity assay as described in the following paragraphs. In essence, the enzyme activity was measured by quantification of the adenosine-di-phosphate (ADP) generated as a co-product of the enzyme reaction via the “ADP-Glo™ Kinase Assay” kit from the company Promega. This detection system works as follows: In a first step the ATP not consumed in the kinase reaction is quantitatively converted to cAMP employing an adenylate cyclase (“ADP-Glo-reagent”), then the adenylate cyclase is stopped and the ADP generated in the kinase reaction converted to ATP, which subsequently generates in a luciferase-based reaction a glow-luminescence signal (“Kinase Detection Reagent”).
(§1) C-terminally FLAG-tagged, recombinant full-length human DGKalpha (expressed in baculovirus infected insect cells, purified using anti-Flag pulldown and size exclusion chromatography as described below, DGKa_hu_1) was used as enzyme. As substrate for the kinase 1,2-dioleoyl-sn-glycerol, reconstituted in octyl-β-D-glucopyranoside micelles, was used. […] Then 35 volumes of 50 mM MOPS buffer (pH 7.4) were added to yield a solution of 0.28 mM 1,2 dioleoyl-sn-glycerol and 200 mM octyl-β-D-glucopyranoside, which was aliquoted, flash-frozen in liquid nitrogen, and stored at −20° C. until use.
For the assay 50 nl of a 100-fold concentrated solution of the test compound in dimethyl sulfoxide (DMSO, Sigma) was pipetted into either a white 1536-well or a white low-volume 384-well microtiter plate (both Greiner Bio-One, Frickenhausen, Germany). […] The concentration of DGKα was adjusted depending of the activity of the enzyme lot and was chosen appropriate to have the assay in the linear range, a typical concentration is about 0.1 nM. The reaction was stopped by the addition of […] of “ADP-Glo-reagent” (1 to 1.5 diluted with water) and the resulting mixture was incubated at 22° C. for 1 h to convert the ATP not consumed in the kinase reaction completely to cAMP. […] The amount of emitted light was taken as a measure for the amount of ADP generated and thereby for the activity of the DGKα.

[2] = molecular target: T2, human DGKzeta (Homo sapiens, UniProt Q13574); test: Human DGKzeta kinase activity inhibition assay (ADP-Glo); assay type: biochemical; details: read-out: IC50 hDGKz
T2 construct: C-terminally FLAG-tagged, recombinant full-length human DGKζ; made in house; host or cells: baculovirus-infected insect cells
T2 sequence (Q13574 whole entry): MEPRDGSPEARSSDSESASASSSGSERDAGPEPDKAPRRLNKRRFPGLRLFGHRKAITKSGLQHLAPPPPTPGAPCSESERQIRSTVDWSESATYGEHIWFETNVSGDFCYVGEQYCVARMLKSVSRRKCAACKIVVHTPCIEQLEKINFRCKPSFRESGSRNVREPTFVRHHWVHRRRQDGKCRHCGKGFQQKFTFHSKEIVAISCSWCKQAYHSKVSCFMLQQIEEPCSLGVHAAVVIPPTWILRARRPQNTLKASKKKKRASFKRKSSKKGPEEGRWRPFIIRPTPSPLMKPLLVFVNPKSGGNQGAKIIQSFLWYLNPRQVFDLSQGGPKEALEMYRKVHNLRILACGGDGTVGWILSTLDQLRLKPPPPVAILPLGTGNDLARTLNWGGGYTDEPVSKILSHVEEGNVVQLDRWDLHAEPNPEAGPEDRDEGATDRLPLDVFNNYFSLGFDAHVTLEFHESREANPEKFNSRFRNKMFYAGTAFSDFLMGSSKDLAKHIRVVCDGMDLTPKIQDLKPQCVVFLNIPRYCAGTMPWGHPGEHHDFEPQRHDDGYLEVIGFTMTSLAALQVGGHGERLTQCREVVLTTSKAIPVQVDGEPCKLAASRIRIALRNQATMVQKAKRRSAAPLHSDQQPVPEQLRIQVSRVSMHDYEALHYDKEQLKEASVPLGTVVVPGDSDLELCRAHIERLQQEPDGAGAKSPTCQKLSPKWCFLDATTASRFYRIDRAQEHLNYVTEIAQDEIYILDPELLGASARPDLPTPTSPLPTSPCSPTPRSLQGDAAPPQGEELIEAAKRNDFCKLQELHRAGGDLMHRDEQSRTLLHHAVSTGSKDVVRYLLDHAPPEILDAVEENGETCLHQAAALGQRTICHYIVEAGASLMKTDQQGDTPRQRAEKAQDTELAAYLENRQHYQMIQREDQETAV
Procedure: Human diacylglycerol kinase zeta (DGKζ) inhibitory activity of compounds of the present invention was quantified employing the human DGKζ kinase activity assay as described in the following paragraphs. In essence, the enzyme activity was measured by quantification of the adenosine-di-phosphate (ADP) generated as a co-product of the enzyme reaction via the “ADP-Glo™ Kinase Assay” kit from the company Promega. This detection system works as follows: In a first step the adenosine-tri-phosphate (ATP) not consumed in the kinase reaction is quantitatively converted to cyclic adenosine-mono-phosphate (cAMP) employing an adenylate cyclase (“ADP-Glo-reagent”), then the adenylate cyclase is stopped and the ADP generated in the kinase reaction is converted to ATP, which subsequently generates in a luciferase-based reaction a glow-luminescence signal (“Kinase Detection Reagent”).
as §1, with “DGKζ (inhouse expressed” for “DGKalpha (expressed”, “chromatography)” for “chromatography as described below, DGKa_hu_1)”, “As an alternative, commercially available enzyme by Carnabio can be used. As” for “As”, “kinase,” for “kinase”
For the assay 50 nl of a 100-fold concentrated solution of the test compound in dimethyl sulfoxide (DMSO, Sigma) was pipetted into either a white 1536-well or a white low-volume 384-well microtiter plate (both Greiner Bio-One, Frickenhausen, Germany). […] The concentration of DGKζ was adjusted depending of the activity of the enzyme lot and was chosen appropriate to have the assay in the linear range, a typical concentration is about 0.1 nM. The reaction was stopped by the addition of 2.5 μL of “ADP-Glo-reagent” (1 to 1.5 diluted with water) and the resulting mixture was incubated at 22° C. for 1 h to convert the ATP not consumed in the kinase reaction completely to cAMP. […] The amount of emitted light was taken as a measure for the amount of ADP generated and thereby for the activity of the DGKζ.

[3] = system: glioblastoma multiforme (GBM) cells; details: concurrent administration; cited from earlier work

SMILES | IC50 [1] [nM] | IC50 [2] | growth of intracranially injected GBM tumors [3]
CC(C(N)=O)N(c1ccc(F)cc1)c1nc(N)c(C(=O)c2ccc(C(F)(F)F)nc2)s1 (single isomer, unassigned) [Example 29.2, 2-(N-[4-amino-5-[6-(trifluoromethyl)pyridine-3-carbonyl]thiazol-2-yl]-4-fluoro-anilino)propanamide] | > 15000 | 46 nM | 
CC(C(N)=O)N(c1ccc(F)cc1)c1nc(N)c(C(=O)c2ccc(OC(F)(F)F)cc2)s1 (single isomer, unassigned) [Example 40.2, 2-(N-[4-amino-5-[4-(trifluoromethoxy)benzoyl]thiazol-2-yl]-4-fluoro-anilino)propanamide] | > 12200 | 7.1 nM | 
CC(C(N)=O)N(c1ccc(F)cc1)c1nc(N)c(C(=O)c2ccc(OC(F)F)cc2)s1 (single isomer, unassigned) [Example 44.2, 2-(N-[4-amino-5-[4-(difluoromethoxy)benzoyl]thiazol-2-yl]-4-fluoro-anilino)propanamide] | > 20000 | 3.9 nM and 6.7 nM | 
COc1ccc(C(=O)c2sc(N(c3ccc(F)c(F)c3)C(C)C(N)=O)nc2N)cc1 (single isomer, unassigned) [Example 51.1, 2-(N-[4-amino-5-(4-methoxybenzoyl)thiazol-2-yl]-3,4-difluoro-anilino)propanamide] | > 13300 | 8.2 nM and 8.9 nM | 
Cn1c(=O)c(C#N)c(N2CCC(c3nc4ccc(F)cc4o3)CC2)c2ccccc21 [Example 4, 4-[4-(6-fluoro-1,3-benzoxazol-2-yl)piperidin-1-yl]-1-methyl-2-oxo-1,2-dihydroquinoline-3-carbonitrile] |  | > 20000 nM | 
Cc1ccc2oc(C3CCN(c4c(C(N)=O)c(=O)n(C)c5ccccc45)CC3)nc2c1 [Example 107, 1-methyl-4-[4-(5-methyl-1,3-benzoxazol-2-yl)piperidin-1-yl]-2-oxo-1,2-dihydroquinoline-3-carboxamide] |  | > 20000 nM | 
COc1ccc(C2CCN(c3c(C(N)=O)c(=O)n(C)c4ccccc34)CC2)cc1 [Example 112, 4-[4-(4-methoxyphenyl)piperidin-1-yl]-1-methyl-2-oxo-1,2-dihydroquinoline-3-carboxamide] |  | > 20000 nM | 
CNC(=O)c1c(N2CCC(c3nc4cc(C)ccc4o3)CC2)c2ccccc2n(C)c1=O [Example 448, N,1-dimethyl-4-[4-(5-methyl-1,3-benzoxazol-2-yl)piperidin-1-yl]-2-oxo-1,2-dihydroquinoline-3-carboxamide] |  | > 20000 nM | 
Cc1nc2sccn2c(=O)c1CCN1CCC(=C(c2ccccc2)c2ccc(F)cc2)CC1 [Example R59022] |  |  | decreased growth of intracranially injected GBM tumors
